# Patent publication US20200281873A1, “Adamantane or Bicyclic Monoterpenoid Derivatives for Use in the Treatment of Leishmaniasis” (Commissariat a l'Energie Atomique et aux Energies …, priority 2017, published 2020)
# pIC50: −log10 of the molar value. Read-outs that look alike come from different tables or passages of the source.
# Columns and labels:
# [1] = system: L. infantum intramacrophagic amastigotes; assay: L. donovani infantum/RAW 264.7 macrophage model (intramacrophagic amastigotes, SYBR Green I); type: cell-based, Leishmania donovani infantum; conditions: Leishmania infantum, Macrophage
# Experimental: Protocol for Evaluation on the L. donovani infantum/RAW 264.7 Macrophage Model (Intramacrophagic Amastigotes)
# Mouse macrophage cells RAW 264.7 (ATCC) were seeded into a 96-well microplate and maintained in DMEM medium (Applied Biosystems, France) supplemented with 10% heat-inactivated fetal bovine serum in a 5% CO2 incubator at 37° C. for 24 h. Then, the medium was replaced with 100 μL fresh medium containing a suspension of 10^5 L. infantum amastigotes and the incubation time was 16 h. Then, extracellular parasites were eliminated from the medium and 100 μL fresh medium containing compound in various concentrations were added for a 48 h-incubation. Parasite growth was determined by using SYBR® Green I (Life technology, Fisher Scientific, France), a dye with marked fluorescence enhancement upon contact with DNA. The cell lysis suspension was diluted 1:1 in lysis buffer (10 mM NaCl, 1 mM Tris HCl pH8, 2.5 mM EDTA pH 8, 0.05% SDS, 0.01 mg/mL proteinase K and 10×SYBR Green I). Incorporation of SYBR Green I in DNA amplification was measured using the Master epRealplex cycler® (Eppendorf, France) according to the following program to increase the SYBR green incorporation: 90° C. for 1 min, decrease in temperature from 90° C. to 10° C. for 5 min with reading the fluorescence at 10° C. for 1 min and a new reading at 10° C. for 2 min. The EC50 as the concentration inhibiting the parasite growth by 50% was calculated by nonlinear regression using icestimator website 1.2 version: http://www.antimalarial-icestimator.net/MethodIntro.htm.
# [2] = system: L. donovani (MHOM/ET/67/HU3) amastigotes; assay: In vivo antileishmanial evaluation, Leishmania donovani/Balb/c mouse model (liver parasite load); conditions: for % reduction of parasite burden in the liver / LDU ± SD (parasites in the liver): Balb/c mice
# Experimental: Compounds VP343, VP370 were evaluated in vivo for their antileishmanial properties by oral and intravenous route on the Leishmania donovani/Balb/c mouse model, comparatively to miltefosine, used as reference drug, according to a previously described protocol (Balaraman et al., 2015). Six- to eight-week-old Balb/c mice (Élevages Janvier, Le Genest Saint Isle, France) were infected intravenously on day 1 with 10^7 L. donovani (MHOM/ET/67/HU3) amastigotes derived from the spleen of hamsters and randomly sorted into four groups of 10 mice and one group of 12 mice as infected controls but not treated. The treatment administered orally or intravenously, started one week post-infection, on day 8, and continued for 5 consecutive days. At day 15, all groups of mice were autopsied and livers and spleens were weighed. Parasite load in the liver was determined by counting the number of amastigotes/500 liver cells in Giemsa-stained impression smears prepared from the liver and applying Stauber's formula. Three researchers counted the slides independently and the results are expressed as the mean values±SD. The parasite burden of treated groups and controls were compared using Student's t-test or the Kruskal-Wallis nonparametric analysis of variance test for comparing two groups. Significance was established for a P value<0.05.
# [3] = Incubation of VP343 with mouse hepatic microsomes (LC-MS); type: in vitro ADME; conditions: t = 45 min
# Experimental: The metabolites' identification of VP343 was performed after incubation of the compound with hepatic microsomal preparations from mouse, dog and human origin. The assay was performed by mixing VP343 at 5; 4; 2 or 1 μM with CD1 mouse hepatic microsomes (reference MIC255030 Biopredic) at 0.5 mg/mL of protein, or Beagle dog hepatic microsomes (reference MIC257013 Biopredic) at 1 mg/mL of protein, or human hepatic microsomes (reference MIC159882 Biopredic) at 1 mg/mL of protein, together with 1 mM NADPH (reference N1630 Sigma Aldrich), a phase I reaction's cofactor, in a 0.1 M phosphate buffer pH 7.4. Samples were then incubated in a Thermomixer® (Eppendorf) at 37° C. and 300 rotations per minute. After 45 minutes of incubation, the reaction was stopped with acetonitrile (0.5 volume of the experimental incubation volume). The samples' supernatants were then separated from the microsomes by centrifugation at 20,000 g during 10 minutes (Sorvall ST 16, Thermo Fisher Scientific) before analysis by liquid chromatography coupled to mass spectrometry (LC-MS).
# The analysis was performed in two steps: first, on a positive electrospray ionisation source using a Waters Acquity I class UPLC (Ultra Performance Liquid Chromatography) system coupled to a Waters triple quadrupole mass spectrometer (Xevo TQMS) and then on an orbitrap source using a Thermo Fisher UHPLC (Ultra High Performance Liquid Chromatography) system (Ultimate 3000) coupled to a Thermo Fisher orbitrap mass spectrometer (Q Exactive) to confirm the structures of the identified metabolites. VP343 and his metabolites were separated by the UPLC system with a six minutes gradient of acetonitrile containing 0.1% of formic acid in a BEH C18 column (1.7 μm, 2.1×50 mm, Waters) with a mobile phase flow rate of 0.6 mL/min.
# The metabolization of VP343 was studied by incubating the compound with mouse, dog, and human hepatic microsomes. The concentration of VP343 in the microsomal preparations was measured at t=0 and at t=45 min by liquid chromatography-tandem mass spectrometry (LC-MS). […]
# [4] = In vivo toxicity evaluation by oral route in mice (serum biochemical parameters); parameters: species or system Balb/C female mice
# Experimental: Biochemical parameters relative to VP343 and VP370 toxicity in Balb/C female mice (18-20 g) after a single treatment by oral route at 100 mg/kg under a 0.1 mL volume (=5 mL/kg). Serum were collected one week after the treatment. Excipient: Methylcellulose 1%+Tween 0.1%.
# Dosages were performed with a Cobas 800 (Roche/Hitachi) apparatus.
# [5] = intravenous route, 10 mg/kg/day × 5
# [6] = single oral treatment 100 mg/kg, serum one week after treatment
smiles,measurement,setting,value
COc1ccc(Br)cc1CN(C)C12CC3CC(CC(C3)C1)C2 [VP343],pIC50,"[1]; Table II, 3 different experiments, SYBR Green I method, read-out: IC50 intramacrophagic",7.40
same,pIC50,"[1]; cf. Table II, read-out: IC50 (intramacrophage amastigotes)",7.40
same,Activity in vivo by intravenous route (in words),"[2]; 10 mg/kg/day×5 intravenous, Dunn's multiple comparisons test",significantly active
same,% reduction of parasite burden in the liver,[2]; [5],42.4%
same,LDU ± SD (parasites in the liver),[2]; [5],0.19 ± 0.09 ×10^8
same,% reduction of parasite burden in the liver,"[2]; oral route, 10 mg/kg/day × 5",60.2%
same,LDU ± SD (parasites in the liver),"[2]; oral route, 10 mg/kg/day × 5, autopsy day 15",0.49 ± 0.07 ×10^9
same,% reduction of parasite burden in the liver,"[2]; oral route, 20 mg/kg/day × 5",70.8%
same,LDU ± SD (parasites in the liver),"[2]; oral route, 20 mg/kg/day × 5, autopsy day 15",0.36 ± 0.08 ×10^9
same,Activity in vivo by oral route (in words),"[2]; VP343 and VP370 at 20 mg/kg/day×5, VP343 also at 10 mg/kg/day×5, Tukey's multiple comparisons test",significantly active
same,VP343 residual concentration,[3]; initial concentration 1 μM,0.08 µM
same,VP343 residual concentration,[3]; initial concentration 2 μM,0.09 µM
same,VP343 residual concentration,[3]; initial concentration 4 μM,0.25 µM
same,Serum AST ± SD,[4]; [6],391 ± 72 U/L
same,Serum AST ± SD (second AST column),[4]; [6],169 ± 34 U/L
same,Serum creatinin,[4]; [6],<18 µM
same,Toxicity after single oral treatment (in words),[4]; single treatment by oral route at 100 mg/kg,did not show toxicity
